From US9758485B2, “Compounds for controlling arthropods” (priority 2013, dated 2017) come the findings set out here.

Series [1] has as its system Ctenocephalides felis. As to the kind of experiment: Ctenocephalides felis - oral test. It counts as in vivo. To be noted: application rate 100 ppm in citrated cattle blood; adult fleas; kill after 2 days. Summed up: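 Compound dissolved in DMSO (10 mg in 0.5 ml stock) and diluted with citrated cattle blood to test concentration. About 20 unfed adult fleas fed on the treated blood through a parafilm membrane. Kill (%) scored after 2 days; 100% = all fleas dead.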

In a further series the test system is Lucilia cuprina. As to the kind of experiment: Lucilia cuprina test. To be noted: application rate 100 ppm; L1 larvae in minced horsemeat; kill after 2 days. The format is in vivo. A digest of the protocol:
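About 20 L1 larvae placed on minced horsemeat treated with compound, formulated in DMSO and diluted with water to test concentration. Kill in % scored after 2 days (100% = all larvae dead, 0% = none).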

A short description of series [2]: logP determination by HPLC on a reversed-phase column (C18), EEC Directive 79/831 Annex V.A8. It counts as physicochemical. To be noted: for logP^a): HPLC-MS method a), Table I-T3; for log P: HPLC-MS, reversed-phase column (C18); for logP: HPLC, reversed-phase C18, acetonitrile/water with formic acid, 55° C.
The next series concerns Boophilus microplus. As to the kind of experiment: Boophilus microplus - injection test. To be noted: application rate 20 μg/animal; injected into engorged adult female ticks; laying of fertile eggs, after 7 days. It counts as in vivo. Summed up:
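Steps: dilute compound in DMSO to the desired concentration; inject 1 μl abdominally into 5 engorged adult females; keep in climate-controlled dishes; at 7 days score fertile egg laying, incubating doubtful eggs until hatch at about 42 days.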

Series [3] deals with Ctenocephalides felis. Kind of series: Ctenocephalides felis - in vitro contact tests with adult cat fleas. The format is in vivo. To be noted: application rate 5 μg/cm^2 (=500 g/ha), after 48 h (dead or moribund). The method, then: Ctenocephalides felis—In Vitro Contact Tests with Adult Cat Fleas
For the coating of the test tubes, 9 mg of active ingredient are first dissolved in 1 ml of acetone p.a. and then diluted to the desired concentration with acetone p.a. 250 μl of the solution are distributed homogeneously on the inner walls and base of a 25 ml test tube by turning and rocking on an orbital shaker (rocking rotation at 30 rpm for 2 h). With 900 ppm active ingredient solution and internal surface area 44.7 cm^2, given homogeneous distribution, an area-based dose of 5 μg/cm^2 is achieved.
After the solvent has evaporated off, the tubes are populated with 5-10 adult cat fleas (Ctenocephalides felis), sealed with a perforated plastic lid and incubated in a horizontal position at room temperature and ambient humidity. After 48 h, efficacy is determined. To this end, the test tubes are stood upright and the fleas are knocked to the base of the tube. Fleas which remain motionless at the base or move in an uncoordinated manner are considered to be dead or moribund.
100% efficacy means that all the fleas were dead or moribund. 0% efficacy means that no fleas were harmed.

The next series concerns Musca domestica. Kind of series: Musca domestica test. It counts as in vivo. To be noted: application rate 100 ppm; adult houseflies; kill after 2 days. The method, then: (§1) Solvent: dimethyl sulphoxide
To produce an appropriate active ingredient formulation, 10 mg of active ingredient are mixed with 0.5 ml of dimethyl sulphoxide, and the concentrate is diluted with water to the desired concentration.
Vessels containing a sponge treated with sugar solution and the active ingredient formulation of the desired concentration are populated with 10 adult houseflies (Musca domestica).
After 2 days, the kill in % is determined. 100% means that all of the flies have been killed; 0% means that none of the flies have been killed.

For series [4], the system named is Boophilus microplus Parkhurst strain, SP-resistant. As to the kind of experiment: Boophilus microplus - dip test. It counts as in vivo. To be noted: application rate 100 ppm; dip of engorged adult female ticks; laying of fertile eggs, after 7 days. How it is done:
Boophilus microplus—Dip Test
Test animals: cattle ticks (Boophilus microplus) Parkhurst strain, SP-resistant
as §1
10 mg of active ingredient are dissolved in 0.5 ml of dimethyl sulphoxide. For the purpose of producing a suitable formulation, the active ingredient solution is diluted with water to the concentration desired in each case.
This active ingredient formulation is pipetted into tubes. 8-10 adult engorged female cattle ticks (Boophilus microplus) are transferred into a further tube with holes. The tube is immersed into the active ingredient formulation, and all the ticks are completely wetted. After the liquid has run out, the ticks are transferred on filter discs into plastic dishes and stored in a climate-controlled room.
Efficacy is assessed after 7 days by laying of fertile eggs. Eggs which are not visibly fertile are stored in a climate-controlled cabinet until the larvae hatch after about 42 days. An efficacy of 100% means that none of the ticks has laid any fertile eggs; 0% means that all the eggs are fertile.

One may read the log P as the decadic logarithm of the partition coefficient of the neutral form, usually between octanol and water. High values mean higher lipophilicity, low ones lower lipophilicity. The logP is the decadic logarithm of the partition coefficient of the neutral form, usually between octanol and water. Low values mean a more hydrophilic compound, high ones a more lipophilic compound.

In the case of `Cc1cc(C(F)(C(F)(F)F)C(F)(F)F)cc(C)c1-n1cc(-c2cncc(C(=O)NC3CC3)c2)cn1` [I-T3-7], the efficacy is listed as 100% in the series with Ctenocephalides felis [1]; 100% in the series with Lucilia cuprina; 100% in the series on Boophilus microplus; 100% with Ctenocephalides felis [3]; 80% with Musca domestica. The “logP^a)” value in series [2] was found to be 3.4.

For the compound `Cc1cc(C(F)(C(F)(F)F)C(F)(F)F)cc(C)c1-n1cc(-c2cccc(C(=O)NC3CC3)c2)cn1` [I-T3-29], the efficacy in the series with Ctenocephalides felis [1], in the series on Lucilia cuprina, in the series with Boophilus microplus, in the series with Ctenocephalides felis [3] and in the series with Musca domestica was 100% each time. Also, the “logP^a)” value in series [2] was determined as 3.3.

Turning to `Cc1cc(C(F)(C(F)(F)F)C(F)(F)F)cc(C)c1-n1cc(-c2cccc(C(=O)NC3(C#N)CC3)c2)cn1` [I-T3-30], the efficacy is reported as 100% in the series on Ctenocephalides felis [1]; 100% in the series with Lucilia cuprina; 100% with Boophilus microplus; 100% in the series on Ctenocephalides felis [3]; 90% in the series with Musca domestica. For the same compound, in series [2], the “logP^a)” value is recorded as 3.2.

As for `O=C(NC1CC1)c1cc(-c2cnn(-c3ccc(C(F)(C(F)(F)F)C(F)(F)F)cc3Cl)c2)ccc1Cl` [I-T3-31], the efficacy in the series with Ctenocephalides felis [1], in the series with Lucilia cuprina, with Boophilus microplus, in the series with Ctenocephalides felis [3] and in the series with Musca domestica was 100% each time. In series [2], the “logP^a)” value turned out to be 4.3.

Consider `CCc1cc(C(F)(C(F)(F)F)C(F)(F)F)ccc1-n1cc(-c2ccc(Cl)c(C(=O)NC3CC3)c2)cn1` [I-T3-39], for which the efficacy (in the series on Ctenocephalides felis [1]; in the series with Lucilia cuprina; in series [4]; with Boophilus microplus) was 100% throughout. In addition, in series [2], the “logP^a)” value is listed as 4.6.

With `Cc1cc(C(F)(C(F)(F)F)C(F)(F)F)cc(C(F)(F)F)c1-n1cc(-c2ccc(Cl)c(C(=O)NCC(F)(F)F)c2)cn1` [I-T3-84], the efficacy in the series with Ctenocephalides felis [1], in the series on Lucilia cuprina, in the series with Boophilus microplus, with Ctenocephalides felis [3] and in the series on Musca domestica was 100% throughout. Further, the “logP^a)” value in series [2] is 4.7.

For `Cc1cc(C(F)(C(F)(F)F)C(F)(F)F)cc(C(F)(F)F)c1-n1cc(-c2ccc(Cl)c(C(=O)NC3CSC3)c2)cn1` [I-T3-85], the efficacy with Ctenocephalides felis [1], in the series with Lucilia cuprina, in the series on Boophilus microplus, with Ctenocephalides felis [3] and in the series with Musca domestica was 100% throughout. Also, the “logP^a)” value in series [2] was determined as 4.7.

Turning to `N#CC1(NC(=O)c2cc(-c3cnn(-c4c(Cl)cc(OC(F)(F)F)cc4Cl)c3)ccc2Cl)CC1` [I-T3-87], the efficacy in the series on Ctenocephalides felis [1], in the series on Lucilia cuprina, in the series on Boophilus microplus, with Ctenocephalides felis [3] and with Musca domestica was 100% each time. Besides, in series [2], the “logP^a)” value worked out at 3.6.

For the compound `CN(C(=O)c1cc(-c2cnn(-c3c(Cl)cc(C(F)(F)F)cc3Cl)c2)cnc1Cl)C1CC1` [I-T3-99], the efficacy in the series on Ctenocephalides felis [1] worked out at 100%; with Lucilia cuprina, 100%; in series [4] it was 90%; with Boophilus microplus, 100%; with Ctenocephalides felis [3], 100%; in the series on Musca domestica it was 90%. Moreover, the log partition coefficient (log P) in series [2] came out at 3.5.

With `CN(C(=O)c1cc(-c2cnn(-c3c(Cl)cc(C(F)(C(F)(F)F)C(F)(F)F)cc3C(F)(F)F)c2)cnc1Cl)C1CC1` [I-T3-113], the efficacy (with Ctenocephalides felis [1]; in the series with Lucilia cuprina; in series [4]; in the series on Boophilus microplus; in the series on Ctenocephalides felis [3]; in the series on Musca domestica) was 100% throughout. The log partition coefficient (log P) in series [2] stood at 4.0.

Turning to `Cc1cc(C(F)(C(F)(F)F)C(F)(F)F)cc(C)c1-n1cc(-c2cnc(C)c(C(=O)N(C)C3(C#N)CC3)c2)cn1` [I-T3-115], the efficacy (in the series on Ctenocephalides felis [1]; in the series with Lucilia cuprina; in series [4]; in the series with Boophilus microplus; in the series on Ctenocephalides felis [3]; in the series on Musca domestica) was 100% each time. Moreover, the “log P” value in series [2] is on record as 3.8.

Turning to `Cc1cc(C(F)(C(F)(F)F)C(F)(F)F)cc(C(F)(F)F)c1-n1cc(-c2cnc(C)c(C(=O)N(C)C3CC3)c2)cn1` [I-T3-118], the efficacy (with Ctenocephalides felis [1]; with Lucilia cuprina; in series [4]; with Boophilus microplus; in the series on Ctenocephalides felis [3]; in the series on Musca domestica) was 100% each time. Moreover, the log partition coefficient (log P) in series [2] was 3.8.

Take `Cc1ncc(-c2cnn(-c3c(Cl)cc(C(F)(F)F)cc3Cl)c2)cc1C(=O)NC1(C#N)CC1` [I-T3-129]: the efficacy in the series on Ctenocephalides felis [1] came out at 100%; in the series on Boophilus microplus, 100%; with Ctenocephalides felis [3], 100%; with Musca domestica, 80%. In series [2], the “log P” value came to 2.6.

For `CNc1ncc(-c2cnn(-c3c(Cl)cc(C(F)(C(F)(F)F)C(F)(F)F)cc3Cl)c2)cc1C(=O)NC1CC1` [I-T3-136], the efficacy with Ctenocephalides felis [1], with Lucilia cuprina, in the series with Boophilus microplus, in the series on Ctenocephalides felis [3] and with Musca domestica was 100% in each case. In series [2], the “log P” value was 3.5.

Consider `O=C(NC1CC1)c1cc(-c2cnn(-c3c(Cl)cc(C(F)(C(F)(F)F)C(F)(F)F)cc3Cl)c2)cnc1NC1CC1` [I-T3-137], for which the efficacy with Ctenocephalides felis [1] is reported as 100%; in the series on Lucilia cuprina it was 80%; in the series with Boophilus microplus it was 100%; in the series on Ctenocephalides felis [3], 100%; in the series with Musca domestica, 100%. Further, in series [2], the “log P” value was 3.4.

On to `CCN(C(=O)c1cc(-c2cnn(-c3c(Cl)cc(C(F)(F)F)cc3Cl)c2)cnc1Cl)C1CC1` [I-T3-145], for which the efficacy in the series on Ctenocephalides felis [1] is listed as 100%; in the series on Lucilia cuprina, 100%; in the series on Boophilus microplus, 100%; with Ctenocephalides felis [3] it was 100%; in the series on Musca domestica it was 90%. Further, the lipophilicity (log P) in series [2] is listed as 3.8.

Take `Cc1cc(C(F)(C(F)(F)F)C(F)(F)F)cc(C)c1-c1cc(-c2ccc(Cl)c(C(=O)NCC(F)(F)F)c2)on1` [I-T22-3]: the efficacy in the series on Ctenocephalides felis [1], with Lucilia cuprina, in the series on Boophilus microplus, with Ctenocephalides felis [3] and in the series with Musca domestica was 100% throughout. In series [2], this compound had a logP of 5.

For the compound `N#CC1(NC(=O)c2cc(-c3cc(-c4c(Cl)cc(C(F)(C(F)(F)F)C(F)(F)F)cc4Cl)on3)ccc2Cl)CC1` [I-T23-2], the efficacy in the series with Ctenocephalides felis [1], in the series with Lucilia cuprina, in the series with Boophilus microplus, in the series on Ctenocephalides felis [3] and in the series on Musca domestica was 100% each time. Moreover, the logP in series [2] was determined as 4.8.

As to `Cc1cc(C(F)(C(F)(F)F)C(F)(F)F)cc(C)c1-n1ccc(-c2ccc(Cl)c(C(=O)NC3CC3)c2)c1` [I-T46-2], the efficacy in the series with Ctenocephalides felis [1], in the series on Lucilia cuprina, with Boophilus microplus and in the series with Ctenocephalides felis [3] was 100% each time. This compound came in with a logP in series [2] of 5.0.
